From US10363257B2 (ZENITH EPIGENETICS LTD., priority 2013, dated 2019) come the findings set out here.

Assay [1] deals with T1, Brd4 bromodomain 1 (BRD4(1)) (Homo sapiens, UniProt O60885).
T1 construct: made in house; host or cells: E. coli BL21(DE3)
In words: Inhibition of tetra-acetylated histone H4 binding to Brd4 bromodomain 1 (TR-FRET). The note with it: tetra-acetylated histone H4 peptide, first bromodomain of Brd4. In a few lines: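 Serially diluted compound (0.2% DMSO) incubated 2 h at room temperature with 200 nM N-His BRD4 bromodomain 1 and 25-50 nM biotinylated tetra-acetyl H4 peptide, detected via Eu-streptavidin/XL665 anti-His. Loss of 665 nm relative to 620 nm signal gave IC50 from dose-response.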

Assay [2] deals with c-myc. In words: Inhibition of c-myc expression (mRNA, real-time PCR) in MV4-11 cells. It counts as cell-based. As to conditions: Human AML MV4-11 cells, 3 h, cMYC mRNA. In a few lines: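 One-step TaqMan qPCR of cMYC, normalized to an internal control with Cyclophilin probes run, gave fold expression versus DMSO (0.1%) control. Samples: triplicate MV4-11 wells exposed 3 h at 37° C to rising compound concentrations in IMDM with 10% FBS.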
(Quantitative PCR measures a nucleic acid by following its amplification.)

For assay [3], the system named is human AML MV-4-11 cells. The experiment in a line: Inhibition of cell proliferation in MV4-11 cells (CellTiter Aqueous One). It counts as cell-based. The note with it: MV4-11, 72 h. In a few lines: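 IC50 values come from blank-corrected proliferation relative to DMSO controls, read as 490 nm absorbance 3–4 h after CellTiter Aqueous One addition. Before that, cells seeded at 5×10^4/well were exposed for 72 h (37° C, 5% CO2) to triplicate two-fold compound dilutions spanning 30–0.2 μM.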

The subject of assay [4] is hIL-6 mRNA. In words: Inhibition of hIL-6 mRNA transcription in LPS-stimulated U937 cells. Type of assay: cell-based. The note with it: Homo sapiens, U-937; PMA-differentiated U937 cells, 1 h pretreatment, 1 ug/mL LPS stimulation, 3 h; read-out: IL-6 activity (Inhibition of hIL-6 mRNA Transcription). In a few lines: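 U937 cells differentiated 3 days with 60 ng/mL PMA, pretreated 1 h with compound (0.1% DMSO), then stimulated with 1 ug/mL E. coli LPS for 3 h at 37 °C. hIL-6 mRNA measured by one-step TaqMan RT-qPCR, normalized to cyclophilin. Fold expression relative to control; triplicate wells.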

On to `Cc1noc(C)c1-c1cnc2nc(C)n(Cc3ccc(Cl)cc3Cl)c2c1` [Example Compound 61, 4-(1-(2,4-dichlorobenzyl)-2-methyl-1H-imidazo[4,5-b]pyridin-6-yl)-3,5-dimethylisoxazole], for which the IC50 was at most 300 nM in assay [1], 300 to 3000 nM in assay [2], 3000 to 30000 nM in assay [3] and 300 to 3000 nM in assay [4].
Turning to `COc1ccc(Cn2c(C)nc3ncc(-c4c(C)noc4C)cc32)cc1` [Example Compound 62, 4-(1-(4-methoxybenzyl)-2-methyl-1H-imidazo[4,5-b]pyridin-6-yl)-3,5-dimethylisoxazole], the IC50 in assay [1] was at most 300 nM; in assay [2] it was 300 to 3000 nM; in assay [3] it was 300 to 3000 nM; in assay [4] it was 300 to 3000 nM.
With `CCS(=O)(=O)Nc1cc(-c2c(C)noc2C)cc2c1nc(C)n2Cc1ccccc1` [Example Compound 65, N-(1-benzyl-6-(3,5-dimethylisoxazol-4-yl)-2-methyl-1H-benzo[d]imidazol-4-yl)ethanesulfonamide], the IC50 in assay [1] was at most 300 nM; in assay [2], 300 to 3000 nM; in assay [3], 300 to 3000 nM; in assay [4] it was 300 to 3000 nM.
As to `COc1cc(-c2c(C)noc2C)cc2c1nc(C)n2Cc1ccccc1` [Example Compound 66, 4-(1-benzyl-4-methoxy-2-methyl-1H-benzo[d]imidazol-6-yl)-3,5-dimethylisoxazole], the IC50 is at most 300 nM in assay [1], 300 to 3000 nM in assay [2], 300 to 3000 nM in assay [3] and 300 to 3000 nM in assay [4].
As for `Cc1noc(C)c1-c1cc(N)c2oc(=O)n(Cc3ccccc3)c2c1` [compound 67, 7-amino-3-benzyl-5-(3,5-dimethylisoxazol-4-yl)benzo[d]oxazol-2(3H)-one], the IC50 in assay [1] is at most 300 nM; in assay [2], at most 300 nM; in assay [3] it was 300 to 3000 nM; in assay [4] it was at most 300 nM.
In the case of `Cc1noc(C)c1-c1cnc2nc(C)n(Cc3cccnc3)c2c1` [compound 68, 3,5-dimethyl-4-(2-methyl-1-(pyridin-3-ylmethyl)-1H-imidazo[4,5-b]pyridin-6-yl)isoxazole], the IC50 is at most 300 nM in assay [1], 300 to 3000 nM in assay [2], 3000 to 30000 nM in assay [3] and 300 to 3000 nM in assay [4].
For `Cc1noc(C)c1-c1cnc2nc(C)n(Cc3cccs3)c2c1` [compound 69, 3,5-dimethyl-4-(2-methyl-1-(thiophen-2-ylmethyl)-1H-imidazo[4,5-b]pyridin-6-yl)isoxazole], the IC50 is at most 300 nM in assay [1], 300 to 3000 nM in assay [2], 300 to 3000 nM in assay [3] and 300 to 3000 nM in assay [4].
With `Cc1noc(C)c1-c1cnc2ccn(Cc3ccccc3)c2c1` [compound 71, 4-(1-benzyl-1H-pyrrolo[3,2-b]pyridin-6-yl)-3,5-dimethylisoxazole], the IC50 in assay [1] is at most 300 nM; in assay [2], 300 to 3000 nM; in assay [3] it was 300 to 3000 nM; in assay [4] it was 300 to 3000 nM.
`Cc1noc(C)c1-c1cnc2c(CN(C)C)cn(Cc3ccccc3)c2c1` [compound 72, 1-(1-benzyl-6-(3,5-dimethylisoxazol-4-yl)-1H-pyrrolo[3,2-b]pyridin-3-yl)-N,N-dimethylmethanamine]: the IC50 lay in the range of 300 to 3000 nM in assay [1], 3000 to 30000 nM in assay [2], 3000 to 30000 nM in assay [3] and 3000 to 30000 nM in assay [4].
Take `Cc1noc(C)c1-c1cc(N)c2ccn(Cc3ccccc3)c2n1` [compound 73, 1-benzyl-6-(3,5-dimethylisoxazol-4-yl)-1H-pyrrolo[2,3-b]pyridin-4-amine]: the IC50 in assay [1] lay within 300 to 3000 nM; in assay [2] it was 3000 to 30000 nM; in assay [3] it was 3000 to 30000 nM; in assay [4] it was 300 to 3000 nM.
Take `Cc1noc(C)c1-c1cnc2nc(C)n(Cc3ccncc3)c2c1` [compound 74, 3,5-dimethyl-4-(2-methyl-1-(pyridin-4-ylmethyl)-1H-imidazo[4,5-b]pyridin-6-yl)isoxazole]: the IC50 in assay [1] was 300 to 3000 nM; in assay [2] it was 3000 to 30000 nM; in assay [3], 3000 to 30000 nM; in assay [4], 300 to 3000 nM.
On to `Cc1noc(C)c1-c1cc(N)c2nc(C)n(CC3CC3)c2c1` [compound 75, 1-(cyclopropylmethyl)-6-(3,5-dimethylisoxazol-4-yl)-2-methyl-1H-benzo[d]imidazol-4-amine], for which the IC50 in assay [1] is at most 300 nM; in assay [2] it was 300 to 3000 nM; in assay [3], 300 to 3000 nM; in assay [4], 300 to 3000 nM.
`Cc1ccc(Cn2c(C)nc3ncc(-c4c(C)noc4C)cc32)s1` [compound 76, 3,5-dimethyl-4-(2-methyl-1-((5-methylthiophen-2-yl)methyl)-1H-imidazo[4,5-b]pyridin-6-yl)isoxazole]: the IC50 is 300 to 3000 nM in assay [1], 300 to 3000 nM in assay [2], 3000 to 30000 nM in assay [3] and 300 to 3000 nM in assay [4].
Take `Cc1noc(C)c1-c1cnc2nc(C)n(Cc3ccc(Cl)s3)c2c1` [compound 77, 4-(1-((5-chlorothiophen-2-yl)methyl)-2-methyl-1H-imidazo[4,5-b]pyridin-6-yl)-3,5-dimethylisoxazole]: the IC50 was at most 300 nM in assay [1], 300 to 3000 nM in assay [2], 300 to 3000 nM in assay [3] and 300 to 3000 nM in assay [4].
With `Cc1noc(C)c1-c1cnc2nc(C)n(Cc3ccc(C#N)s3)c2c1` [compound 78, 5-((6-(3,5-dimethylisoxazol-4-yl)-2-methyl-1H-imidazo[4,5-b]pyridin-1-yl)methyl)thiophene-2-carbonitrile], the IC50 in assay [1] is at most 300 nM; in assay [2] it was 3000 to 30000 nM; in assay [3], 3000 to 30000 nM; in assay [4], 300 to 3000 nM.
For the compound `Cc1cnn(C)c1-c1cc([N+](=O)[O-])c2nc(C)n(Cc3ccccc3)c2c1` [compound 81, 1-benzyl-6-(1,4-dimethyl-1H-pyrazol-5-yl)-2-methyl-4-nitro-1H-benzo[d]imidazole], the IC50 lay within 300 to 3000 nM in assay [1], 3000 to 30000 nM in assay [2], 3000 to 30000 nM in assay [3] and 300 to 3000 nM in assay [4].
For the compound `Cc1cnn(C)c1-c1cc(N)c2nc(C)n(Cc3ccccc3)c2c1` [compound 82, 1-benzyl-6-(1,4-dimethyl-1H-pyrazol-5-yl)-2-methyl-1H-benzo[d]imidazol-4-amine], the IC50 in assay [1] fell in the range of 300 to 3000 nM; in assay [2], 300 to 3000 nM; in assay [3] it was 3000 to 30000 nM; in assay [4] it was 300 to 3000 nM.
Consider `Cc1noc(C)c1-c1cnc2nc(C)n(Cc3ccc(Cl)cc3)c2c1` [compound 83, 4-(1-(4-chlorobenzyl)-2-methyl-1H-imidazo[4,5-b]pyridin-6-yl)-3,5-dimethylisoxazole], for which the IC50 was at most 300 nM in assay [1], 300 to 3000 nM in assay [2], 300 to 3000 nM in assay [3] and 300 to 3000 nM in assay [4].
As for `Cc1noc(C)c1-c1cnc2nc(C)n(Cc3ccc(O)cc3)c2c1` [compound 84, 4-((6-(3,5-dimethylisoxazol-4-yl)-2-methyl-1H-imidazo[4,5-b]pyridin-1-yl)methyl)phenol], the IC50 in assay [1] was at most 300 nM; in assay [2], 300 to 3000 nM; in assay [3] it was 300 to 3000 nM; in assay [4], 300 to 3000 nM.
`Cc1noc(C)c1-c1cc(C#N)c2[nH]c(=O)n(Cc3ccccc3)c2c1` [compound 86, 1-benzyl-6-(3,5-dimethylisoxazol-4-yl)-2-oxo-2,3-dihydro-1H-benzo[d]imidazole-4-carbonitrile]: the IC50 was at most 300 nM in assay [1], 300 to 3000 nM in assay [2], 3000 to 30000 nM in assay [3] and 300 to 3000 nM in assay [4].
In the case of `Cc1noc(C)c1-c1cc(N)c2nc(N3CCOCC3)n(Cc3ccccc3)c2c1` [compound 87, 1-benzyl-6-(3,5-dimethylisoxazol-4-yl)-2-morpholino-1H-benzo[d]imidazol-4-amine], the IC50 in assay [1], in assay [2], in assay [3] and in assay [4] was at most 300 nM in each case.
Consider `Cc1noc(C)c1-c1cnc2c(C#N)cn(Cc3ccccc3)c2c1` [compound 88, 1-benzyl-6-(3,5-dimethylisoxazol-4-yl)-1H-pyrrolo[3,2-b]pyridine-3-carbonitrile], for which the IC50 in assay [1] is at most 300 nM; in assay [2], 300 to 3000 nM; in assay [3], 300 to 3000 nM; in assay [4] it was at most 300 nM.
Consider `Cc1noc(C)c1-c1cnc2c(Cl)cn(Cc3ccccc3)c2c1` [compound 89, 4-(1-benzyl-3-chloro-1H-pyrrolo[3,2-b]pyridin-6-yl)-3,5-dimethylisoxazole], for which the IC50 in assay [1] was at most 300 nM; in assay [2], 300 to 3000 nM; in assay [3] it was 300 to 3000 nM; in assay [4], 300 to 3000 nM.
On to `Cc1noc(C)c1-c1cc([N+](=O)[O-])c2[nH]c(=O)n(Cc3ccc(Cl)cc3)c2c1` [compound 91, 1-(4-chlorobenzyl)-6-(3,5-dimethylisoxazol-4-yl)-4-nitro-1H-benzo[d]imidazol-2(3H)-one], for which the IC50 in assay [1] was at most 300 nM; in assay [2], 300 to 3000 nM; in assay [3] it was 3000 to 30000 nM; in assay [4] it was 300 to 3000 nM.
